Test results taken from patent publication EP0132540A1 (priority 1981, dated 1983).
≈ marks a conversion by molar mass, not a printed value.

Assays:
Acute toxicity in mice = assay: Acute toxicity in mice; set-up: species or system ddy male mice; settings: mouse, in vivo, suspended in 5% Arabic gum solution, mortality observed for 7 days
Procedure: Experimental Example 7: Acute Toxicity in Mice
Each compound of the invention was suspended in 5% Arabic gum solution and given orally (p.o.) or intraperitoneally (i.p.) to groups of ten ddy male mice weighed from 24 to 26 g at the dosage volume of 10 ml/kg. […] LD50 was determined according to the method of Wilcoxon and Litchfield.

influenza virus B/GL = format: in vivo, ICR female mice; settings: result in words, oral
Influenza A0 = assay: microbe, parasite or virus in culture; format: cell-based; settings: Virus A = Influenza A0, MDCK, Vero and HEL cells
Influenza A1 = assay: microbe, parasite or virus in culture; format: cell-based
Influenza B = assay: microbe, parasite or virus in culture; format: cell-based
Parainfluenza Type 3 = assay: microbe, parasite or virus in culture; format: cell-based; settings: Virus E = Parainfluenza Type 3
ECHO = assay: microbe, parasite or virus in culture; format: cell-based
Coxsackie Type B5 = assay: microbe, parasite or virus in culture; format: cell-based; settings: Virus G = Coxsackie Type B5
Rhino = assay: microbe, parasite or virus in culture; format: cell-based
influenza A0 virus = assay: Protective action against the death of mice infected with influenza A0 virus; format: in vivo, ICR female mice; settings: for Survival rate: twice a day for 14 days, survivors at 15th day
Text: Experimental Example 2 Protective Action against the Death of Mice. Infected with Influenza A0 Virus,
After the influenza A0 virus was inoculated to groups each -consisting of ten ICR female mice (16 - 18 g) intranasally under light anesthesia with ether, compound of the invention was given orally or intraperitoneally as multiple doses of twice a day starting one hour after infection and continued for 14 days. The result of the treatment was shown as the increase in percentage of survivors at 15th day.

[1] = Physicochemical properties (qualitative solubility); settings: qualitative solubility in solvents
[2] = ip, Intra-peritoneal administration

SMILES | LD50 at 168 h (Acute toxicity in mice; [2]) [mg/kg] | LD50 at 168 h (Acute toxicity in mice; Oral administration) [mg/kg] | survival rates of the treated groups as compared with that of the control (influenza virus B/GL) | MIC (Influenza A0) [mg/L] | MIC (Influenza A1) [mg/L] | MIC (Influenza B) [mg/L] | MIC (Parainfluenza Type 3) [mg/L] | MIC (ECHO) [mg/L] | MIC (Coxsackie Type B5) [mg/L] | MIC (Rhino) [mg/L] | Survival rate (influenza A0 virus; intraperitoneal, 100 mg/kg) [%] | Survival rate (influenza A0 virus; oral, 300 mg/kg) [%] | Property (solubility) [1] | Survival rate (influenza A0 virus; intraperitoneal, 10 mg/kg) [%] | Survival rate (influenza A0 virus; intraperitoneal, 30 mg/kg) [%] | Survival rate (influenza A0 virus; oral, 30 mg/kg) [%] | Survival rate (influenza A0 virus; oral, 100 mg/kg) [%] | protective action against death due to the infection (influenza A0 virus; result in words, oral or intraperitoneal)
CC(C)OC(=O)c1ccc(Br)c(S(N)(=O)=O)c1 [Compound 9, 3-aminosulfonyl-4-bromo-isopropylbenzoate] | > 1000 | > 3000 |  |  |  |  |  |  |  |  |  |  |  |  |  |  |  | 
CCCCOC(=O)c1ccc(Br)c(S(N)(=O)=O)c1 [Compound 10, 3-aminosulfonyl-4-bromo-n-butylbenzoate] | > 1000 | > 3000 | extremely excellent activity |  |  |  |  |  |  |  |  |  |  |  |  |  |  | 
C=CCOC(=O)c1cc(S(N)(=O)=O)c(Cl)cc1Cl [Compound 11, 5-aminosulfonyl-2,4-dichloro-allylbenzoate] | > 1000 | > 3000 |  |  |  |  |  |  |  |  |  |  |  |  |  |  |  | 
CN(C)S(=O)(=O)c1cc(C(=O)O)ccc1Cl [Compound 3, 4-chloro-3-dimethyl-aminosulfonylbenzoic acid] | > 1000 | > 3000 |  | 30 (≈ 114 µM) | 300 (≈ 1140 µM) | 300 (≈ 1140 µM) | 300 (≈ 1140 µM) | 300 (≈ 1140 µM) | 300 (≈ 1140 µM) | 300 (≈ 1140 µM) | 40 | 50 | white crystalline powder; insoluble in benzene, hexane; soluble in hot water, methanol |  |  |  |  | 
COC(=O)c1ccc(F)c(S(N)(=O)=O)c1 [Compound 8, 3-aminosulfonyl-4-fluoromethylbenzoate] | > 1000 | > 3000 |  |  |  |  |  |  |  |  |  |  |  |  |  |  |  | 
NS(=O)(=O)c1cc(C(=O)O)c(Cl)cc1Cl [Compound 7, 5-aminosulfonyl-2,4-dichlorobenzoic acid] | > 1000 | > 3000 |  | 10 (≈ 37 µM) | 300 (≈ 1110 µM) | 100 (≈ 370 µM) | 100 (≈ 370 µM) | 100 (≈ 370 µM) | 100 (≈ 370 µM) | 100 (≈ 370 µM) |  |  | white crystalline powder; insoluble in benzene, hexane; soluble in hot water, methanol | 40 | 50 | 40 | 60 | extremely excellent activity
O=C(O)c1ccc(Cl)c(S(=O)(=O)Nc2ccccc2)c1 [Compound 5, 3-anilinosulfonyl-4-chlorobenzoic acid] | 968 | > 3000 |  | 30 (≈ 96.2 µM) | 300 (≈ 962 µM) | 300 (≈ 962 µM) | 300 (≈ 962 µM) | 300 (≈ 962 µM) | 100 (≈ 321 µM) | 300 (≈ 962 µM) | 40 | 40 | white crystalline powder; insoluble in benzene, hexane; soluble in hot water, methanol |  |  |  |  | 
CC(C)NS(=O)(=O)c1cc(C(=O)O)ccc1Cl [Compound 4, 4-chloro-3-isopropyl-aminoslfonylbenzoic acid] | > 1000 | > 3000 |  | 30 (≈ 108 µM) | 100 (≈ 360 µM) | 300 (≈ 1080 µM) | 300 (≈ 1080 µM) | 300 (≈ 1080 µM) | 300 (≈ 1080 µM) | 300 (≈ 1080 µM) | 40 | 40 | white crystalline powder; insoluble in benzene, hexane; soluble in hot water, methanol |  |  |  |  | 
O=C(O)c1ccc(Cl)c(S(=O)(=O)N2CCOCC2)c1 [Compound 6, 4-chloro-3-morpholino-sulfonylbenzoic acid] | > 1000 | > 3000 |  | 30 (≈ 98.1 µM) | 300 (≈ 981 µM) | 300 (≈ 981 µM) | 300 (≈ 981 µM) | 100 (≈ 327 µM) | 300 (≈ 981 µM) | 300 (≈ 981 µM) | 50 | 50 | white crystalline powder; insoluble in benzene, hexane; soluble in hot water, methanol |  |  |  |  | 
CNS(=O)(=O)c1cc(C(=O)O)ccc1Cl [Compound 1, 4-chloro-3-methylamino-sulfonylbenzoic acid] | > 1000 | > 3000 |  | 30 (≈ 120 µM) | 300 (≈ 1200 µM) | 300 (≈ 1200 µM) | 300 (≈ 1200 µM) | 300 (≈ 1200 µM) | 100 (≈ 401 µM) | 300 (≈ 1200 µM) | 40 | 50 | white crystalline powder; insoluble in benzene, hexane; soluble in hot water, methanol |  |  |  |  | 
CCNS(=O)(=O)c1cc(C(=O)O)ccc1Cl [Compound 2, 4-chloro-3-ethylamino-sulfonylbenzoic acid] | > 1000 | > 3000 |  | 30 (≈ 114 µM) | 300 (≈ 1140 µM) | 300 (≈ 1140 µM) | 300 (≈ 1140 µM) | 300 (≈ 1140 µM) | 300 (≈ 1140 µM) | 300 (≈ 1140 µM) | 40 | 50 | white crystalline powder; insoluble in benzene, hexane; soluble in hot water, methanol |  |  |  |  | 
